Experimental data reported in US12378247B2, “Mesylate salt of para-topolin, compositions containing said salt and use thereof” (USTAV EXPERIMENTALNI BOTANIKY AV CR, V. V. I., priority 2020, dated 2025).

Experiments:
[1] = test system: Human diploid fibroblast BJ; experiment: MTT cytotoxicity assay in normal fibroblasts; type: cell-based; settings: 72 hours
Experimental: MTT (metabolic tetrazolium toxicity) assay is a standard colorimetric assay for evaluation of cytotoxicity. Mitochondrial dehydrogenase activity converts yellow MTT into violet formazan which is measured by means of spectrometry. Human diploid fibroblast BJ (passage 18-22) were seeded into 96-well plate (5.000 cells per well). After 6 hours cultivation medium (DMEM with 5 g/l glucose, 2 mM glutamine, 100 U/ml penicillin, […] streptomycin, 10% fetal calf serum and sodium bicarbonate) was replaced with the cultivation medium containing test compounds in concentration range of 0-200 μM. Highest concentration was adjusted if the solubility of the compound was limiting. Every concentration was tested in pentaplicate. MTT was added to the cells after 72 hours incubation (final concentration 0.5 mg/ml) and incubation continued for another 3 hours. MTT was solubilised by DMSO and absorbance at 570 nm was measured. Growth inhibition (GI) was estimated using the following equitation: GI=(mean A drug exposed wells-mean Ablank/mean Acontrol wells−mean Ablank)×100%. The GI20 value, the drug concentration causing 20% decrease in mitochondrial dehydrogenase activity, was calculated from the obtained dose response curves.

[2] = ORAC (Oxygen Radical Absorbance Capacity), ability to scavenge free radicals; type: biochemical; settings: n = 3
Experimental: The ability of the substance to scavenge free radicals in vitro was determined using the ORAC (Oxygen Radical Absorbance Capacity) method. Briefly, 100 μl of fluorescein ([…]) and 25 μl of tested substance solution were pipetted into each well of a 96-well microtiter plate preheated to 37° C. The reaction itself was started by the addition of 25 μL 250 mM AAPH. After shaking for 5 s, the fluorescence (Ex. 485 nm, Em. 510 nm) was read every 3 min for 90 min using an Infinite 200 instrument (TECAN, Switzerland). The area under the curve was used to express the antioxidant capacity relative to trolox, which is used as a standard. […] Such activities are likely to be closely related to the electron-rich C6-hydroxybenzylamino substituent system.

Rat glioma C6 cells = experiment: Anti-inflammatory activity: isoproterenol-induced intracellular cAMP synthesis; type: cell-based; settings: isoproterenol-induced cAMP, C6 cells
Experimental: The anti-inflammatory activity of para-topolin and para-topolin mesylate was determined; cytokinin kinetin was also evaluated as a control. Rat glioma C6 cells (ATCC No. CCL107) were cultured in a monolayer in chemically defined beser medium containing Ham's F10/minimal essential medium (1:1 v/v), 2 mM L-glutamine, 1% (v/v). Minimum vitamins of essential medium (100×), 1% (v/v) minimum essential amino acids (100×), 100 U/ml penicillin, […] streptomycin and 30 nM sodium selenite. Incubation was performed at 37° C. in a 100% humidified atmosphere. The assays were performed in logarithmic growth phase at a density of 2.5×10^5 cells/cm^2. Intracellular cAMP synthesis was induced by the addition of 5 mM (−)-isoproterenol; at the same time, various concentrations of tested compounds were added at the same time as (−)-isoproterenol. After 30 minutes of incubation, the cellular amount of CAMP was determined by ELISA (cAMP-enzyme immunoassay from Amersham). IC50 values were determined from the […] dose-response curve.

Structure (SMILES)	Cytotoxicity for Human Diploid Fibroblasts GI20 [1]	ORAC Average(TE), Trolox equivalents on equimolar basis [2]	Anti-inflammatory activity (in words) (Rat glioma C6 cells)
OC[C@H]1O[C@@H](n2cnc3c(NCc4ccccc4)ncnc32)[C@H](O)[C@@H]1O [6-(benzylamino)purine riboside]	1700 nM	–	–
OC[C@H]1O[C@@H](n2cnc3c(NCc4ccco4)ncnc32)[C@H](O)[C@@H]1O [6-furfurylaminopurine riboside]	2100 nM	–	–
Oc1cccc(CNc2ncnc3nc[nH]c23)c1 [6-(3-hydroxybenzylamino)purine (mT), 6-(3-hydroxybenzylamino)purine]	–	4.509 TE	–
Oc1ccccc1CNc1ncnc2nc[nH]c12 [6-(2-hydroxybenzylamino)purine (oT), 6-(2-hydroxybenzylamino)purine]	–	7.026 TE	–
c1coc(CNc2ncnc3nc[nH]c23)c1 [6-furfurylaminopurine (kinetin), 6-furfurylaminopurine]	>167000 nM	–	inactive
